# Target: T1, mitochondrial ATP synthase (Mus musculus, UniProt P56480+Q03265)
# T1 construct: from tissue; host or cells: mouse heart, isolated mitochondria (fresh or frozen)
# Experiment: ATP hydrolysis (proton release/ECAR, Seahorse XF96) in fresh heart mitochondria
# Format: biochemical
# Details: for changes in ATP hydrolysis: fresh heart mitochondria (FIG. 1, FIG. 2)
# Source text: To assess whether the fraction of synthetic and reverse hydrolytic activities of mitochondrial ATP synthase can be measured in the same preparation, a protocol was developed to monitor changes in oxygen consumption and proton release in response to changes in mitochondrial ATP synthase activity. The proton released and the concomitant changes in the pH can be monitored using the ECAR (extracellular acidification) channel in the Agilent Seahorse XF analyzer using isolated mitochondria, to ensure that the changes in pH cannot be attributed to glycolysis or other contributors to ECAR.
# Mice were anesthetized with isoflurane followed by a cervical dislocation, and the heart was immediately removed and placed in ice cold relaxation buffer (5 mM sodium pyrophosphate, 100 mM KCl, 5 mM EGTA, 5 mM HEPES; pH 7.4). The heart was squeezed with tweezers to remove blood, minced with scissors, and then placed in a glass-glass Dounce homogenizer with 3 mL of HES homogenization buffer (250 mM sucrose, 5 mM HEPES, 1 mM EDTA; pH to 7.2, adjusted with KOH). The heart tissue was homogenized first with the loose pestle and followed by the tight pestle. The homogenized tissue was placed in a pre-chilled 15 ml conical tube and centrifuged at 900×g (4° C.) for 10 minutes (min). The supernatant was removed, placed in a new tube and centrifuged again at 900×g for 10 min. The supernatant was then transferred to 2 mL microcentrifuge tubes and centrifuged at 10,000×g (4° C.) for 10 min. The mitochondrial pellets were re-suspended in ice cold HES buffer and mitochondrial protein was measured with a BCA assay (Pierce). The concentrated mitochondrial pellet was stored on ice.
# Heart mitochondria (0.75-1.5 μg) were loaded into a Seahorse XF96 microplate in 20 μL of MAS (70 mM Sucrose, 220 mM Mannitol, 5 mM KH2PO4, 5 mM MgCl2, 1 mM EGTA, 2 mM HEPES; pH 7.2) plus 1% free fatty acid BSA containing substrates. The loaded plate was centrifuged at 2,000×g for 5 min at 4° C. (no brake) and an additional 130 μL of MAS was added to each well. When assessing compounds effect on respirometry, the compounds were added at this point at the indicated concentration in MAS buffer. To avoid disrupting mitochondrial adherence to the bottom of the plate, MAS was added using a multichannel pipette pointed at a 45° angle to the top of the well-chamber, as instructed by the manufacturer. Substrate concentrations in the well when assay was starting in state 4 were as follow: (i) 5 mM pyruvate+5 mM malate or ii) 5 mM succinate+2 μM rotenone. Substrate concentrations in the well when assay was starting in state 3 were as follow: (i) 5 mM pyruvate+5 mM malate+4 mM ADP or ii) 5 mM succinate+2 μM rotenone+4 mM ADP. Injections were performed as indicated in the figure descriptions at the following final concentration in the well: oligomycin (3.5 μM), FCCP (4 μM), Antimycin A (2 μM). Compounds were added at the indicated concentration.
# ATP hydrolysis capacity or state 4 acidification was measured using Seahorse XF96 as described in Divakaruni et al. (2018) Anal Biochem 552:60-65 and Acin-Perez et al. (2021) Life 11(9):949, in MAS (70 mM Sucrose, 220 mM Mannitol, 5 mM KH2PO4, 5 mM MgCl2, 1 mM EGTA, 2 mM HEPES; pH 7.2). Plates were loaded with 0.75-1.5 μg of mouse heart mitochondria, or 25 μg of cell lysate. Cell lysates were prepared by subjecting the samples to 4 cycles of free thaw (liquid nitrogen—37° C. water bath) before measuring protein concentration. When assessing compounds effect on respirometry, the compounds were added in MAS after sample centrifugation. Initial respiration of the samples was sustained by the addition of 5 mM succinate+2 μM rotenone in the MAS after centrifugation. Injections were performed at the following final concentration in the well: Antimycin A (2 μM), oligomycin (5 μM), FCCP (1 μM), ATP (20 mM). To assess maximal ATP concentration, ATP was injected consecutively. […]
changes in ATP hydrolysis,"decrease in hydrolysis (fresh mitochondria, Complex II)",SMILES,decrease in hydrolysis (mitochondria preparation and substrate not given),"change in hydrolysis (fresh mitochondria, Complex I)"
–,–,"Oc1cc(O)c2c(c1)O[C@H](c1ccc(O)c(O)c1)[C@H](O)C2 [Epicatechin, (+)Epicatechin, reference compound]",10-25%,–
very mild changes,–,"COc1cc(C2Oc3ccccc3CC2O)ccc1F (single isomer, unassigned) [Compound 75b, 2-(4-fluoro-3-methoxyphenyl)chroman-3-ol]",–,–
very mild changes,20%,"Oc1ccc2c(c1)OC(c1ccc(O)c(C(F)(F)F)c1)C(O)C2 (single isomer, unassigned) [Compound 77b, 2-(4-hydroxy-3-(trifluoromethyl)phenyl)chromane-3,7-diol]",–,no clear change

# From patent US20240254135A1, “POLYPHENOL COMPOUNDS” (Epirium Bio Inc., priority 2022, published 2024)
